Consider 8 compounds from PubChem BioAssay (NCI).

As usually defined, the GI50 is the concentration giving 50% growth inhibition. As usually defined, the TGI is the concentration at which net growth stops. Read a low TGI as greater sensitivity of the cells.

Values joined by “and” are separate entries in the source; they are usually repeats but may differ in a detail not shown here. Equal values may be shown once.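 Dose response: 5 concentrations. Exposure: 48 h. Format: 96-well plates. Endpoint: linear interpolation; highest concentration if not reached. GI50 is the concentration that inhibits growth by half. TGI: total growth inhibition.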

Test systems include EKVX NSCLC; SK-MEL-5 melanoma; M14 melanoma; CCRF-CEM leukemia; UACC-257 melanoma; OVCAR-5 ovarian; SK-OV-3 ovarian; KM12 colon; HS 578T breast; RPMI-8226 leukemia.
Assay in all cases: DTP human tumour cell line panel, 48 h

With `CN1CCN(CCOc2cc(OC3CCOCC3)c3c(Nc4c(Cl)ccc5c4OCO5)ncnc3c2)CC1`, the GI50 in the experiment on EKVX NSCLC is 1.04 µM and 0.732 µM; with SK-MEL-5 melanoma, 11.4 µM and > 10 µM; in the experiment with M14 melanoma it was 15.4 µM and > 10 µM; in the experiment on CCRF-CEM leukemia, 21.5 µM and > 10 µM; with UACC-257 melanoma it was 15.1 µM and > 10 µM; in the experiment on OVCAR-5 ovarian, 1.13 µM and 1.35 µM. Moreover, the 50% growth inhibitory concentration (GI50) in the experiment with SK-OV-3 ovarian was 0.441 µM and 0.345 µM; with KM12 colon, 1.32 µM and 2.23 µM; with HS 578T breast it was 0.732 µM and 1.7 µM; with RPMI-8226 leukemia, 19.4 µM and > 10 µM. Besides, the TGI is 57.6 µM and > 10 µM in the experiment with EKVX NSCLC; 23.6 µM and > 10 µM in the experiment with SK-MEL-5 melanoma; 31.3 µM and > 10 µM in the experiment with M14 melanoma; 76.3 µM and > 10 µM in the experiment with CCRF-CEM leukemia; 30.2 µM and > 10 µM with UACC-257 melanoma; 23.9 µM and > 10 µM with OVCAR-5 ovarian. For the same compound, the TGI with SK-OV-3 ovarian is 13.2 µM and > 10 µM; with KM12 colon, 15.1 µM and > 10 µM; in the experiment with HS 578T breast it was 11.2 µM and > 10 µM; in the experiment on RPMI-8226 leukemia it was 63.4 µM and > 10 µM.

Take `C=C1C(=O)O[C@H]2[C@H]1CC/C(COC(=O)NCCc1c[nH]c3ccc(Cl)cc13)=C\CC[C@@]1(C)O[C@@H]21`: the GI50 is 1.73 µM in the experiment with EKVX NSCLC; 1.83 µM in the experiment on SK-MEL-5 melanoma; 1.61 µM in the experiment with M14 melanoma; 0.583 µM with CCRF-CEM leukemia; 1.72 µM in the experiment with UACC-257 melanoma; 1.97 µM in the experiment with OVCAR-5 ovarian. The GI50 is 13.2 µM in the experiment on SK-OV-3 ovarian, 2.64 µM in the experiment on KM12 colon, 3.21 µM in the experiment on HS 578T breast and 1.2 µM in the experiment on RPMI-8226 leukemia. The TGI amounted to 3.53 µM with EKVX NSCLC; 3.33 µM in the experiment with SK-MEL-5 melanoma; 3.13 µM in the experiment with M14 melanoma; 3.07 µM with CCRF-CEM leukemia; 3.19 µM in the experiment with UACC-257 melanoma; 4.19 µM in the experiment on OVCAR-5 ovarian. Moreover, the TGI in the experiment with SK-OV-3 ovarian came to 26 µM; in the experiment on KM12 colon, 7.32 µM; in the experiment on HS 578T breast it was 9.76 µM; in the experiment with RPMI-8226 leukemia it was 4.21 µM.

As for `Oc1[nH]c2ccccc2c1N=Nc1c(F)c(F)c(F)c(F)c1F`, the TGI with EKVX NSCLC was > 100 µM; with SK-MEL-5 melanoma, > 100 µM; with M14 melanoma, > 100 µM; in the experiment with CCRF-CEM leukemia, 16.5 µM; in the experiment with UACC-257 melanoma, > 71.5 µM; in the experiment on OVCAR-5 ovarian, > 100 µM. Also, the TGI in the experiment on SK-OV-3 ovarian was > 100 µM; with KM12 colon, > 61.9 µM; in the experiment on HS 578T breast it was > 100 µM; in the experiment with RPMI-8226 leukemia it was 25.4 µM.

For `Cc1cnc(Nc2ccc(N3CCN(C)CC3)cc2)nc1Nc1ccc(Cl)c(NS(=O)(=O)C(C)(C)C)c1`, the GI50 is 0.311 µM in the experiment on EKVX NSCLC; 0.312 µM with SK-MEL-5 melanoma; 0.112 µM in the experiment on M14 melanoma; 0.18 µM in the experiment on CCRF-CEM leukemia; 1.36 µM with UACC-257 melanoma; 0.219 µM in the experiment with OVCAR-5 ovarian. Moreover, the GI50 in the experiment on SK-OV-3 ovarian is 0.0972 µM; with KM12 colon it was 0.0943 µM; with HS 578T breast it was 0.128 µM; in the experiment on RPMI-8226 leukemia, 0.136 µM. The TGI amounted to 4.4 µM in the experiment with EKVX NSCLC; 1.51 µM with SK-MEL-5 melanoma; 1.78 µM in the experiment on M14 melanoma; 6.83 µM in the experiment on CCRF-CEM leukemia; 2.88 µM in the experiment with UACC-257 melanoma; 13.4 µM in the experiment with OVCAR-5 ovarian. The TGI in the experiment with SK-OV-3 ovarian came to 0.808 µM; in the experiment on KM12 colon, 5.39 µM; in the experiment on HS 578T breast, 1.4 µM; in the experiment with RPMI-8226 leukemia, 1.31 µM.

Consider `CN(C)c1ccc(C(c2ccc(Cl)cc2)c2ccc(N(C)C)cc2)cc1`, for which the TGI in the experiment with EKVX NSCLC, in the experiment on SK-MEL-5 melanoma, in the experiment with M14 melanoma, in the experiment on CCRF-CEM leukemia, with UACC-257 melanoma and in the experiment with OVCAR-5 ovarian was > 100 µM each time. Moreover, the TGI in the experiment on SK-OV-3 ovarian, in the experiment with KM12 colon, with HS 578T breast and in the experiment with RPMI-8226 leukemia was > 100 µM throughout.

On to `COc1cccc(C2C3=C(COC3=O)N(CCO)c3cc4c(cc32)OCO4)c1` (centres undefined), for which the GI50 in the experiment with EKVX NSCLC is 1.03 µM; in the experiment with SK-MEL-5 melanoma it was 0.177 µM; with M14 melanoma it was 0.25 µM; with CCRF-CEM leukemia it was 0.274 µM; in the experiment on UACC-257 melanoma, 0.124 µM; with OVCAR-5 ovarian, 2.03 µM. The GI50 in the experiment on SK-OV-3 ovarian is 0.289 µM; in the experiment on KM12 colon, 0.192 µM; in the experiment on HS 578T breast it was 0.251 µM; with RPMI-8226 leukemia it was 0.706 µM. In addition, the concentration for total growth inhibition (TGI) is > 50 µM with EKVX NSCLC; > 50 µM with SK-MEL-5 melanoma; > 11 µM in the experiment with M14 melanoma; > 50 µM with CCRF-CEM leukemia; > 50 µM with UACC-257 melanoma; > 50 µM in the experiment with OVCAR-5 ovarian. The values for the TGI in the experiment on SK-OV-3 ovarian, in the experiment on HS 578T breast and in the experiment on RPMI-8226 leukemia were > 13.8 µM, 45.2 µM and > 50 µM, respectively.

Consider `CCOC(=O)c1ccc2c(c1)[n+](=O)c(C(C)=O)c(C(F)(F)F)n2[O-]`, for which the GI50 in the experiment on EKVX NSCLC is 1.82 µM; in the experiment on SK-MEL-5 melanoma, 1.5 µM; with M14 melanoma it was 1.7 µM; with CCRF-CEM leukemia it was 1.68 µM; with UACC-257 melanoma it was 1.76 µM; in the experiment on OVCAR-5 ovarian it was 1.56 µM. Further, the GI50 in the experiment with SK-OV-3 ovarian is 1.64 µM; in the experiment with KM12 colon, 1.47 µM; in the experiment on HS 578T breast it was 1.4 µM; with RPMI-8226 leukemia, 1.45 µM. The TGI turned out to be 3.96 µM in the experiment on EKVX NSCLC; 2.84 µM in the experiment with SK-MEL-5 melanoma; 3.67 µM in the experiment on M14 melanoma; 4.59 µM in the experiment with CCRF-CEM leukemia; 3.5 µM in the experiment on UACC-257 melanoma; 3.22 µM in the experiment on OVCAR-5 ovarian. Also, the TGI with SK-OV-3 ovarian came out at 3.34 µM; in the experiment on KM12 colon, 2.89 µM; in the experiment on HS 578T breast, 3.96 µM; in the experiment with RPMI-8226 leukemia, 4 µM.

For the compound `COc1cccc(/C(C)=N/NC(=O)CSc2nc3ccccc3c(=O)n2CCc2ccc(S(N)(=O)=O)cc2)c1`, the GI50 in the experiment on EKVX NSCLC is 5.81 µM; with SK-MEL-5 melanoma, 2.03 µM; with M14 melanoma, 2.58 µM; in the experiment on CCRF-CEM leukemia it was 5.31 µM; in the experiment on UACC-257 melanoma it was 10.9 µM; in the experiment on OVCAR-5 ovarian, 3.36 µM. For the same compound, the GI50 was 2.26 µM in the experiment with SK-OV-3 ovarian, 2.8 µM with KM12 colon, 3.54 µM in the experiment with HS 578T breast and 0.943 µM with RPMI-8226 leukemia. In addition, the TGI with EKVX NSCLC was 33.9 µM; with SK-MEL-5 melanoma it was 4.24 µM; in the experiment on M14 melanoma, 73 µM; in the experiment with CCRF-CEM leukemia it was > 100 µM; in the experiment with UACC-257 melanoma, 36.7 µM; with OVCAR-5 ovarian, 21 µM. Moreover, the TGI with SK-OV-3 ovarian was 4.88 µM; with KM12 colon it was 7.67 µM; in the experiment with HS 578T breast, 15.9 µM; in the experiment with RPMI-8226 leukemia, > 100 µM.
